Measurements reported in a melting point compilation (Tetko et al.; mined from patent text by program, amines drawn as free bases though some values may be those of a salt).

Row | Structure (SMILES) | melting point [°C]
1 | CC(=O)OCC1OC(n2cnc3c(O)nc(Nc4ccccc4)nc32)C(OC(C)=O)C1OC(C)=O (centres undefined) | 234 to 235
2 | CNC(=O)N(N(CCCl)S(C)(=O)=O)S(C)(=O)=O | 146 to 148
3 | COc1ccc(-c2cnn3c(N)c(-c4ccc(F)cc4)c(C)nc23)cc1 | 243 to 244
4 | C=C1C(=O)C2CCC1(C)C2(C)C (centres undefined) | 69 to 75
5 | NC(=O)c1ccccc1N1CCc2cc(Cl)cc([N+](=O)[O-])c21 | 225 to 226
6 | Cc1cc(-c2ccc(C(F)(F)F)nc2)cc(-c2cccc(-c3cccc(S(=O)(=O)NC(C)(C)C)c3)n2)n1 | 187 to 188
7 | COC(=O)c1c(Oc2ccccc2[N+](=O)[O-])c2ccccc2n1C | 119 to 121
8 | O=C(NCc1ccccc1)c1cnc(-c2ccccc2)nc1S | 189 to 193
9 | CC(C)(C)c1cc(CCc2ccccc2NC(=O)NC2CCN(Cc3ccc(Cl)cc3)CC2)cc(C(C)(C)C)c1O | 184 to 185
10 | CC(C)(N=NC(C)(C)C(=O)NC1CCCCC1)C(=O)NC1CCCCC1 | 116
11 | COc1cc(N(C(C)=O)C2CCCCC2)c2ccccc2c1OC(C)=O | 137 to 139
12 | CCCn1nc(-c2cc(C(C)(C)C)c(O)c(C(C)(C)C)c2)c2cccnc21 | 97 to 98
13 | Oc1ccc2c(c1)CCN(Cc1ccc(-c3ccccc3)cc1)C2 | 235 to 237
14 | CC1(C)COC(c2ccc(F)cc2Cl)=N1 | 138 to 139
15 | COC(=O)N1C(=O)NC(C)=C(C(=O)OC(C)C)C1c1cccc(Cl)c1Cl (centres undefined) | 208 to 210
16 | O=S1(=O)c2cccc3cccc(c23)N1CCCN1CCN(c2cccc(O)c2)CC1 | 175
17 | Cc1nn(-c2ccc(C(F)(F)F)cn2)cc1CCCOc1cc(CC(=O)O)n(C)n1 | 143 to 144
18 | O=C1c2ccccc2C(=O)N1CC=CCn1ccnc1 | 106 to 108
19 | CCOP(=O)(OCC)N1C(=O)[C@@H](NC(=O)OC(C)(C)C)[C@@H]1C | 101 to 104
20 | N#CCC=C1c2ccccc2C=Cc2ccccc21 | 95 to 101

Row | Structure (SMILES) | melting point [°C]
21 | Nc1nc2c(c(N3CCN(Cc4ccccc4)CC3)n1)SCCC2 | 124 to 127
22 | CNC(=O)Oc1cc(C)c(NC(=O)COC)cc1C | 168 to 170
23 | CC1=CC(O)C(OC(=O)c2ccc(N)cc2)C(C)(C)CC1=O (centres undefined) | 170 to 171
24 | CCN(CC)C(=O)c1ccc2ccccc2c1-c1cccc(COC(C)(C)C)c1 | 117 to 119
25 | CN(SC(Cl)(Cl)Cl)S(=O)(=O)C(Cl)=C(Cl)Cl | 57 to 58
26 | c1ccc(-c2cccc(-n3cnc4cccnc43)c2)cc1 | 89 to 91
27 | CC(C)c1nn(-c2ccc(C(F)(F)F)cn2)cc1CCCOc1c(Br)cccc1CC(=O)O | 146 to 147
28 | CCOCn1c(N(C(C)=O)c2cc(C)cc(C)c2)c(CC)c(=O)[nH]c1=O | 182 to 183
29 | CC(=O)C(=NNc1ccccc1)C(N)=O | 146 to 147
30 | O=c1cc(-c2nnn[nH]2)oc2cc(CCc3cccc(OCc4ccc5ccccc5n4)c3)ccc12 | 201 to 205
31 | COCC(C)Nc1cc(-c2ncnc(Nc3cccc(Cl)c3)n2)ccn1 (centres undefined) | 149 to 151
32 | O=C(NCCCBr)c1cnn(-c2nc(-c3cccc(C(F)(F)F)c3)cs2)c1C(F)(F)F | 187 to 190
33 | COc1cccc(OC)c1C(=O)Nc1cccc2c1CCN(C)C2 | 191 to 192
34 | CCCc1nc2c(N)nc3cc(OCc4ccoc4)ccc3c2s1 | 170 to 171
35 | C/C(=C\C(C)O)c1ccc(C2CCCCCC2)cc1 (centres undefined) | 64 to 65
36 | C[C@H]1[C@H](NSc2ccccc2[N+](=O)[O-])C(=O)N1OCc1ccccc1 | 97 to 100
37 | CCCCCCCCCCOc1ccc2c(=O)c3cc(C(=O)O)ccc3oc2c1CCC(=O)O | > 210
38 | COc1cc(N)c(F)cc1Br | 60 to 62
39 | Cn1ncnc1COc1nc2c(cnn2-c2ccccc2)cc1C(C)(C)C | 143 to 145
